Earlier results in US8784886B2, “Coating capsules with active pharmaceutical ingredients” (GlaxoSmithKline, LLC, priority 2006, dated 2014).

Conditions: gelatin capsules, stored and packaged under the prescribed conditions of temperature and humidity

CC1=C(/C=C/C(C)=C/C=C/C(C)=C/CO)C(C)(C)CCC1 [USP vitamin A, vitamin A]
time without significant loss of potency of the encapsulated contents: ≥ 3 years
